What all share (assay): KinomeScan profiling
Common to all, as to type: binding

For one experiment, the target named is T1, RIOK1 (Homo sapiens, UniProt Q9BRS2).
T1 sequence (Q9BRS2 1-568): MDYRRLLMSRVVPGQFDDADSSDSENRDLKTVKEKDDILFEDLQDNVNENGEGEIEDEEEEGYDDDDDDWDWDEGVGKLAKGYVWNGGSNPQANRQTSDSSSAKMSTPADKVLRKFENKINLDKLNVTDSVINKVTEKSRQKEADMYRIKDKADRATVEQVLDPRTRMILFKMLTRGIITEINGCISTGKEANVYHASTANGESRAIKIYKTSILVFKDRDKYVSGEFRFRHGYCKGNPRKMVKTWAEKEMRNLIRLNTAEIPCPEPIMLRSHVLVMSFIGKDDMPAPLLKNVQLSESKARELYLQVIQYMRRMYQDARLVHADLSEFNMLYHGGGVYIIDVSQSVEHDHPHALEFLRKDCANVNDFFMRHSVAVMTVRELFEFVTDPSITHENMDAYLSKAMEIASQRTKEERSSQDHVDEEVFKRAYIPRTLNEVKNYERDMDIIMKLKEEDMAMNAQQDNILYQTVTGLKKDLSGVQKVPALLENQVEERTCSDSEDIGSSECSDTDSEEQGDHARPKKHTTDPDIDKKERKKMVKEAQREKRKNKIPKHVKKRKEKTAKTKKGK
The settings on record: RIOK1, 1 μM; read-out: % control. The procedure: (§1) The kinase selectivity of inventive compounds 77, 96 and 101 was evaluated by KinomeScan®. KinomeScan® analysis was performed against a near comprehensive panel of 468 kinases. The control percentage (% control) for inventive compounds at 1 μM in DMSO was determined by Equation 1: % control=(inventive compound−positive control)/(negative control−positive control)×100%, Equation 1
(§2) wherein the positive control is a compound with a % control value of 0% relative light units (RLU), and the negative control (i.e., DMSO) has % control value of 100% RLU. The enzyme selectivity in the present invention is defined as follows: inventive compounds are considered active for an enzyme when the observed % control is less than 35% (<35%).

A further experiment has as its target p38-beta (Homo sapiens, UniProt Q15759). The note with it: read-out: % control. As for the experimental part: as §1, §2
Another experiment has as its target T2, PIK3CA(E545A) (Homo sapiens, UniProt P42336, E545A).
T2 construct: purchased KinomeScan® (panel service)
The settings on record: read-out: % control. The procedure: as §1, §2

Another experiment has as its target T3, DDR2 (Homo sapiens, UniProt Q16832).
T3 sequence (Q16832 22-855): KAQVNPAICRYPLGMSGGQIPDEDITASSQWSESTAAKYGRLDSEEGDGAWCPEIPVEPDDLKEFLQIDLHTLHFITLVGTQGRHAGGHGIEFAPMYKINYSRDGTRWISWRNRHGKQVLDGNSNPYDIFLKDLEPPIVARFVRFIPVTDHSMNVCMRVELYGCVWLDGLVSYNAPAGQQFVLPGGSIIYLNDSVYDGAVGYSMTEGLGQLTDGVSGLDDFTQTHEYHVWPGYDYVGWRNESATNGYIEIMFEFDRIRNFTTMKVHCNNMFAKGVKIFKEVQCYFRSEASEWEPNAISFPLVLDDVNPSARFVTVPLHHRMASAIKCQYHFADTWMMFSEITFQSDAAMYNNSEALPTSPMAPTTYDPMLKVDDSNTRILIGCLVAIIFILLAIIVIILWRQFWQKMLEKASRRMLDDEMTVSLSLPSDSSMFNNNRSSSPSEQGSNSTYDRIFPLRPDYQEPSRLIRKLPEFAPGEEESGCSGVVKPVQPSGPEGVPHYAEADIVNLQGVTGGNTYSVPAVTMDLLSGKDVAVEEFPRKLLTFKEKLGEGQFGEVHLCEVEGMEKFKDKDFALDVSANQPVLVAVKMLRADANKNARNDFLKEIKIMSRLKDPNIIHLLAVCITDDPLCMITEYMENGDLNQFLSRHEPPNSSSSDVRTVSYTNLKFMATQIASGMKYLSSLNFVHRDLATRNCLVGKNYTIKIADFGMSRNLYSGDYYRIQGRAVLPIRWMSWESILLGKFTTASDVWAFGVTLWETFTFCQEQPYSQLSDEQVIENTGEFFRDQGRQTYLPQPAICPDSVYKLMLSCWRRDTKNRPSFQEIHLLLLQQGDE
The note with it: DDR2, 1 μM; read-out: % control. As for the experimental part:
as §1, §2

The next experiment has as its target T4, FLT3(R834Q) (Homo sapiens, UniProt P36888, R834Q).
T4 sequence (P36888 27-993 R834Q): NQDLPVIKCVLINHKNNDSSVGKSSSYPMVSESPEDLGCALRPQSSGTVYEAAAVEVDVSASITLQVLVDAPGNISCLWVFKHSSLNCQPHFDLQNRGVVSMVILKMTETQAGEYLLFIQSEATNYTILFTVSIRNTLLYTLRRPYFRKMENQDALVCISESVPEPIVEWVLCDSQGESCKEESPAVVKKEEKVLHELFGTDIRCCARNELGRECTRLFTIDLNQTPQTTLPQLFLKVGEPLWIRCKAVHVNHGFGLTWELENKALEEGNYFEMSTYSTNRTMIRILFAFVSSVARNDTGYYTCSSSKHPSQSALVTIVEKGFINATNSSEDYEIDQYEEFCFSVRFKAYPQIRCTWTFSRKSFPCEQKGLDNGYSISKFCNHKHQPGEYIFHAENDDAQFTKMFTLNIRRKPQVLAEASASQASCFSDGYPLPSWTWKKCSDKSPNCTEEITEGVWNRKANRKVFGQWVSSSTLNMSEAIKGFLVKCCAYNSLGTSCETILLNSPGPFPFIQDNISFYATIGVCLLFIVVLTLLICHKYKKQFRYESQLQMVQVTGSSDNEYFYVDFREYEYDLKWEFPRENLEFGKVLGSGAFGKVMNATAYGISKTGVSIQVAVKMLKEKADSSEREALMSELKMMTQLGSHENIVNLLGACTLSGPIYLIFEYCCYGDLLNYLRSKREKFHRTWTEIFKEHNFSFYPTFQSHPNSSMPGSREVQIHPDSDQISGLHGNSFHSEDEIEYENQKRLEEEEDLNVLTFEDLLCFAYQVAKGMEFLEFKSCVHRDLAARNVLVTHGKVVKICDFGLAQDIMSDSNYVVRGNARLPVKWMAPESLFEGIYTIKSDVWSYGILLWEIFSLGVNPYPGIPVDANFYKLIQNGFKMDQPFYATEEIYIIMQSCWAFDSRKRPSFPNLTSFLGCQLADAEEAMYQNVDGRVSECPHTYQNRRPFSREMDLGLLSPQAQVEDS
The note with it: read-out: % control. The procedure:
as §1, §2

The target in the next experiment is TNK2 (Homo sapiens, UniProt Q07912). The settings on record: TNK2, 1 μM; read-out: % control. The procedure:
as §1, §2

The target in the next experiment is LIMK2 (Homo sapiens, UniProt P53671). The note with it: LIMK2, 1 μM; read-out: % control. As for the experimental part: as §1, §2
Sequence of LIMK2 (P53671 whole entry): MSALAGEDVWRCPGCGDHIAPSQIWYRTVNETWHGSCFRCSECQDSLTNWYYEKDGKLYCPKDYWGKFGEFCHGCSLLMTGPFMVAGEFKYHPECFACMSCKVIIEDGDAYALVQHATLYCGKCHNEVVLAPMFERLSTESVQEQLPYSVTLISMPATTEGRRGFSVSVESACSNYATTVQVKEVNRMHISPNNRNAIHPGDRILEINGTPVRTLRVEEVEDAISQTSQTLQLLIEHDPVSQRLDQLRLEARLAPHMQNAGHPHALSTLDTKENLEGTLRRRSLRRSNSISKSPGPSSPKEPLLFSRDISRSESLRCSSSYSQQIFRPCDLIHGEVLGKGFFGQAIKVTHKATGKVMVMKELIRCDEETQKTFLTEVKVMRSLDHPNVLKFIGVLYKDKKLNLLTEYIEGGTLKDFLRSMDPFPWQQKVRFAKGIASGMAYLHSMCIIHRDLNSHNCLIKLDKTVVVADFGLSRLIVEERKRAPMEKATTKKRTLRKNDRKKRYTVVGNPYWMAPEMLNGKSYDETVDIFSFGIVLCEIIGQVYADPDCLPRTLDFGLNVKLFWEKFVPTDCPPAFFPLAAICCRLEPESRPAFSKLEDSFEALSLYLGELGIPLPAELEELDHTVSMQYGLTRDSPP

T2 sequence (P42336 whole entry E545A): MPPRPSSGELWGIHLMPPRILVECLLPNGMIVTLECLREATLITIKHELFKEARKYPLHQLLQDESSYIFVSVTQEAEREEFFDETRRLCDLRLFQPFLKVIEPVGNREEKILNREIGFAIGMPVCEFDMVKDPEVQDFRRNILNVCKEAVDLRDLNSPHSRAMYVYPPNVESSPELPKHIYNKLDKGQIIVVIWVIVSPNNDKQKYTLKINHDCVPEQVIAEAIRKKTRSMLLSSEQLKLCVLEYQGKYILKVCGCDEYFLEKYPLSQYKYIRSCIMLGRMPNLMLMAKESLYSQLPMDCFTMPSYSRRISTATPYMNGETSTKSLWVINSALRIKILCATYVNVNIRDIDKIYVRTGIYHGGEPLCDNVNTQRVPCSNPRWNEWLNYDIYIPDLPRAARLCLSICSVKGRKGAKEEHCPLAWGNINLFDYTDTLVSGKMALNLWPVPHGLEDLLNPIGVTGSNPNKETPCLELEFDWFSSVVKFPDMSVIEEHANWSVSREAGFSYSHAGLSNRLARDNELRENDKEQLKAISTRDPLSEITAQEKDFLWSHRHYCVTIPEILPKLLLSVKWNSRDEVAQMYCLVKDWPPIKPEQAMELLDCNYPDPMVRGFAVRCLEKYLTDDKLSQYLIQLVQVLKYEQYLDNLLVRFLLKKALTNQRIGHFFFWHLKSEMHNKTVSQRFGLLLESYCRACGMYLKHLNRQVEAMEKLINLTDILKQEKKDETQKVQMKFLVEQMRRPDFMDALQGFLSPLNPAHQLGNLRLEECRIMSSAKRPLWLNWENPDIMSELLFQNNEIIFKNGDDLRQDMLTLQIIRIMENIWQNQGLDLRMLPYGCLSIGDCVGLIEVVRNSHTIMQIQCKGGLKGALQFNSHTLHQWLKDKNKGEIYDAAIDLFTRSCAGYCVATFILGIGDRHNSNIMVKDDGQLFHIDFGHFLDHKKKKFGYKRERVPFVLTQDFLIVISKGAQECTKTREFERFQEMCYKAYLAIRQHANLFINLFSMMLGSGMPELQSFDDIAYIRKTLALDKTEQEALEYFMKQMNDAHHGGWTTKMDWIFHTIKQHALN
Sequence of TNK2 (Q07912 whole entry): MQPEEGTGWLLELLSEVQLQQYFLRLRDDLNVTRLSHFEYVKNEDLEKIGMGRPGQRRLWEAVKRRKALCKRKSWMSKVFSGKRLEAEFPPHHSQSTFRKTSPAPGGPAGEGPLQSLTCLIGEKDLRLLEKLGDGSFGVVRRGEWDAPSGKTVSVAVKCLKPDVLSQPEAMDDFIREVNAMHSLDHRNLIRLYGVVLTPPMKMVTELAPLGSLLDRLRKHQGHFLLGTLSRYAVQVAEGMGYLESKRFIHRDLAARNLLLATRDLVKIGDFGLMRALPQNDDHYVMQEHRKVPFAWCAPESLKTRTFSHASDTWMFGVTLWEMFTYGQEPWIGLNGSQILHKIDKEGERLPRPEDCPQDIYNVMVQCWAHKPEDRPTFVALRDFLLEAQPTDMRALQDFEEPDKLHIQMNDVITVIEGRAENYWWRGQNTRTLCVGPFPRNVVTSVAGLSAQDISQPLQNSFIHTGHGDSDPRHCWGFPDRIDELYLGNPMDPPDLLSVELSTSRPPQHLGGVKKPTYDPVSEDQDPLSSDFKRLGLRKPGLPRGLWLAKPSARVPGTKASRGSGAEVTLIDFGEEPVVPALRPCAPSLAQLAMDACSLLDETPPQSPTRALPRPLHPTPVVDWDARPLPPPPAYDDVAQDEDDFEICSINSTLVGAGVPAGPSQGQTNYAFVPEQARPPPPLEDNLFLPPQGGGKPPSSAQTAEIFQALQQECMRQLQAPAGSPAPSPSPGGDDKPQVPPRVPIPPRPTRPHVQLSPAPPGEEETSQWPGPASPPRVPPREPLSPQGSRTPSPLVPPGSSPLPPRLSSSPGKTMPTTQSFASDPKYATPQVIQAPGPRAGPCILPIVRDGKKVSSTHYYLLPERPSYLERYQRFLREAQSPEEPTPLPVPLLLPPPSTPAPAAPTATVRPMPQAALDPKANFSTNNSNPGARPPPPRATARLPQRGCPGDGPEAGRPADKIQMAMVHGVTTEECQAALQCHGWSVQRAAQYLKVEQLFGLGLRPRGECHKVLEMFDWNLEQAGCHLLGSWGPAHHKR
Sequence of p38-beta (Q15759 whole entry): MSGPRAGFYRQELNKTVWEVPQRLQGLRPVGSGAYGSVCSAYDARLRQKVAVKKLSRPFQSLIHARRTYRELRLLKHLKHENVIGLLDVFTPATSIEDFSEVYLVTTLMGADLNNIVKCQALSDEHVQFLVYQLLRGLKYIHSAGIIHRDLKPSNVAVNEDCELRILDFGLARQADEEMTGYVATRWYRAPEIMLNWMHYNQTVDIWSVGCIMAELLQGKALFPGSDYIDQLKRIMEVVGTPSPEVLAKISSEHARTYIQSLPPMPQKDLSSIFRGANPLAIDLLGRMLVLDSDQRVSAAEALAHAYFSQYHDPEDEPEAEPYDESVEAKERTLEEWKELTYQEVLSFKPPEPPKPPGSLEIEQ

Regarding `CNc1c(-c2ccc(C(=O)N3CCC(N4CCOCC4)CC3)cc2)cnc2[nH]cc(Cl)c12` [Compound 96, (4-(3-chloro-4-(methylamino)-1H-pyrrolo[2,3-b]pyridin-5-yl)phenyl)(4-morpholinopiperidin-1-yl)methanone], the remaining binding at 1 µM was determined as 0.15% at RIOK1; 58% at p38-beta; 62% at PIK3CA(E545A); 79% on DDR2; 52% on FLT3(R834Q); 94% at TNK2. Also, at LIMK2, the remaining binding at 1 µM was 100%.

On to `O=C(c1ccc(-c2cnc3[nH]cc(Cl)c3c2NC2CCCC2)cc1)N1CCC(N2CCOCC2)CC1` [Compound 101, (4-(3-chloro-4-(cyclopentylamino)-1H-pyrrolo[2,3-b]pyridin-5-yl)phenyl)(4-morpholinopiperidin-1-yl)methanone], for which the remaining binding at 1 µM stood at 11% at RIOK1; 92% at p38-beta; 98% at PIK3CA(E545A); 100% at DDR2; 75% on FLT3(R834Q); 98% on TNK2. For the same compound, at LIMK2, the remaining binding at 1 µM came to 99%.

Regarding `CNc1c(-c2cnn([C@H]3CCN(C(C)=O)C[C@@H]3F)c2)cnc2[nH]cc(Cl)c12` [Compound 77, 1-((3S,4S)-4-(4-(3-chloro-4-(methylamino)-1H-pyrrolo[2,3-b]pyridin-5-yl)-1H-pyrazol-1-yl)-3-fluoropiperidin-1-yl)ethan-1-one], the remaining binding at 1 µM on RIOK1 is 0%; at p38-beta it was 95%; on PIK3CA(E545A) it was 80%; at DDR2, 86%; on FLT3(R834Q), 45%; on TNK2, 100%. Moreover, the remaining binding at 1 µM at LIMK2 was found to be 97%.

Values taken from patent publication US12275731B2, “Azaindole inhibitors of wild-type and mutant forms of LRRK2” (DANA-FARBER CANCER INSTITUTE, INC., priority 2018, dated 2025).
